For one data set, the system named is MEG-01. Put plainly: Antiproliferative activity against human MEG-01 cells assessed as cell growth inhibition incubated for 72 hrs by Cell Titer-Glo Luminescent assay. The note with it: MEG-01, 72 h. It counts as functional, cell-based. A general note: In ATP-based viability assays light output follows the ATP content of the culture.
The subject of the next data set is KU812 cell line. The data set can be described thus: Antiproliferative activity against human KU812 cell line assessed as cell growth inhibition incubated for 72 hrs by Cell Titer-Glo Luminescent assay. Format: functional, cell-based. The note with it: KU812, 72 h.
The test system of another data set is SUP-B15. The data set can be described thus: Antiproliferative activity against human SUP-B15 cells assessed as cell growth inhibition incubated for 72 hrs by Cell Titer-Glo Luminescent assay. The note with it: SUP-B15, 72 h. It counts as functional, cell-based.
Data set [1] in a line: Mutagenicity in Salmonella typhimurium TA100 incubated for 96 hrs by Ames test. The note with it: salmonella enterica subsp. enterica serovar typhimurium. It counts as toxicity.
Data set [2] can be described thus: Mutagenicity in Salmonella typhimurium TA1535 incubated for 96 hrs by Ames test. It counts as toxicity. Conditions: salmonella enterica subsp. enterica serovar typhimurium. Background: The Ames test uses bacterial strains that need an amino acid and regain growth without it when mutated back.
A short description of data set [3]: Mutagenicity in Salmonella typhimurium TA98 incubated for 96 hrs by Ames test. It counts as toxicity. The note with it: salmonella enterica subsp. enterica serovar typhimurium.
Data set [4] in a line: Mutagenicity in Salmonella typhimurium TA1537 incubated for 96 hrs by Ames test. Conditions: salmonella enterica subsp. enterica serovar typhimurium. Format: toxicity.

For the molecule `COc1cc(Nc2c(C#N)cnc3cc(OCCCN4CCN(C)CC4)c(OC)cc23)c(Cl)cc1Cl` [BOSUTINIB], the IC50 (commonly the point on the concentration scale where inhibition reaches its midpoint) with MEG-01 stood at 0.013 µM; with KU812 cell line it was 0.0036 µM; with SUP-B15, 0.21 µM.

With `COc1cc(Nc2c(C#N)cnc3cc(OCCON4CCN(C)CC4)c(OC)cc23)c(Cl)cc1Cl`, the Activity result in data set [1], in data set [2], in data set [3] and in data set [4] was “Non-Toxic” in each case.
